Non-standard residues stand in square brackets, D forms with d. Residues, ends and D or L forms follow the SMILES beside them. No end group written: not given here.
Tests used:
[1] = tested on: 3T3-L1 mouse adipocytes; experiment: Free Fatty Acid Levels in 3T3-L1 Mouse Adipocytes (Example 12, 10 μM); format: cell-based; details: peptides 10 μM, 20-22 hours then 3 hours with isoproterenol 1 nM, 3T3-L1 mouse adipocytes
Experimental: The effect of the peptides on fatty acid metabolism can be assessed using an assay of free fatty acid levels in cultured cells such as mouse adipocytes. Peptides were initially prepared as 10 mM stock in DMSO, diluted to 1 mM in H2O, and used at a final concentration of 10 μM (0.1% DMSO). […] After 20-22 hours, 1 nM isoproterenol was added to all wells except untreated controls and test peptides were replenished. Insulin at 100 nM was added to control wells. […] Free fatty acid concentrations in the media were determined using a Free Fatty Acid Assay kit (Zen-Bio) according to the manufacturer's instructions using a Cytation 3 plate reader at 540 nm (BioTek, Winooski, Vt.). Absorbance values were corrected for untreated background and expressed relative to isoproterenol treated cells. Treatment with isoproterenol (1 nM) alone was used as the free fatty acid level stimulatory control. The relative standard deviation of the isoproterenol control was <10%. […] Free fatty acid levels for insulin (100 nM) treatment were <5% of the isoproterenol control value.

[2] = tested on: C2C12 cells; experiment: Cellular ROS Levels Induced by TBHP in C2C12 Cells (DCFDA); format: cell-based, mouse; details: peptides 10 μM, 18-20 hours, then TBHP 100 μM 1 hour, relative to TBHP control
Experimental: The protective or synergistic effect of the peptides on cellular levels of reactive oxygen species (ROS) induced by oxidative stress can be assessed using an assay of ROS in cultured cells such as mouse myoblasts exposed to a suitable oxidative stress. Peptides were initially prepared as 10 mM stock in DMSO, diluted to 1 mM in H2O, and added at a final concentration of 10 μM (0.1% DMSO). […] TBHP was used at final concentration of 100 μM. Sulforaphane at final concentration of 10 µM was used as a protective control against TBHP induced ROS production. […] C2C12 cells were grown in DMEM supplemented with 20% FBS with 100 IU/ml penicillin and 100 μg/ml streptomycin. […] C2C12 cells were seeded at 7,500 cells per well on 96-well plates. […] After 18-20 hours of incubation the cells were loaded with DCFDA for 45 min. TBHP at 100 μM was then added to the appropriate wells for 1 hour. ROS activity was determined using a DCFDA Cellular ROS Detection Assay kit (Abcam, Cambridge, Mass.) according to the manufacturer's instructions. Fluorescence in each sample well on the plate was measured using a Cytation 3 plate reader at Ex/Em=485/535 nm (BioTek, Winooski, Vt.). Activity was calculated relative to TBHP control. The relative standard deviation of the sulforaphane control was <20%. The ROS level produced by the sulforaphane control in the presence of TBHP was 52% of the TBHP control.

[3] = tested on: Caspase 3/7 in C2C12 cells; experiment: Caspase 3/7 Activity in C2C12 Cells; format: cell-based, mouse; details: peptides 10 μM, 24 hours, relative to 0.1% DMSO control
Experimental: The effect of the peptides on cell death/survival can be assessed using a caspase-3/7 assay in cultured cells such as mouse myoblast cells. Peptides were initially prepared as 10 mM stock in DMSO, diluted to 1 mM in H2O, and used at a final concentration of 10 μM (0.1% DMSO). […] Staurosporine (Abcam, Cambridge, Mass.) was dissolved at 10 mM in DMSO as a stock solution. Caspase-Glo 3/7 Assay Reagent was purchased from Promega (Madison, Wis.). C2C12 cell line was purchased from American Type Culture Collection (Manassas, Va.). C2C12 cells were grown in DMEM supplemented with 20% FBS with 100 IU/ml penicillin and 100 μg/ml streptomycin. Cultures were maintained at 37° C. in a humidified atmosphere of 5% CO2/95% air. C2C12 cells were seeded at 4,000 cells per well on 96-well plates. The next day cells were incubated with test peptides at 10 μM or staurosporine at concentrations between 100 nM and 5 nM using a final concentration of 0.1% DMSO and maintained at 37° C. in a humidified atmosphere of 5% CO2/95% air for 24 hours. Caspase 3/7 activity was determined using a Caspase-Glo 3/7 Assay kit according to the manufacturer's instructions. Luminescence for each sample well on the plate was measured using a Cytation 3 plate reader (BioTek, Winooski, Vt.). Activity was calculated relative to 0.1% DMSO control.

[4] = tested on: C2C12 cells; experiment: ATP Levels in Cultured C2C12 Cells (CellTiter-Glo); format: cell-based, mouse; details: peptides 10 μM, 3 days with readdition every 24 hours, relative to 0.1% DMSO control
Experimental: The effect of the peptides on cellular metabolism can be assessed using an assay of ATP levels in cultured cells such as mouse myoblast cells. Peptides were initially prepared as 10 mM stock in DMSO, diluted to 1 mM in H2O, and used at a final concentration of 10 μM (0.1% DMSO). […] Lovastatin was prepared as 10 mM stock in 70% Ethanol and used at final concentration of 10 µM containing 0.1% DMSO. CellTiter-Glo® Assay kit was purchased from Promega (Madison, Wis.). […] C2C12 cells were grown in DMEM medium supplemented with 20% FBS with 100 IU/ml penicillin and 100 μg/ml streptomycin. […] C2C12 cells were seeded at 800 cells per well on 96-well plates. […] ATP levels were determined using a CellTiter-Glo Assay kit according to the manufacturer's instructions. Luminescence for each sample well on the plate was measured using a Cytation 3 plate reader (BioTek, Winooski, Vt.). Activity was calculated relative to 0.1% DMSO treated control. The relative standard deviation of the result for the 0.1% DMSO treated control was <5%. […] ATP levels for treatment with lovastatin (10 μM) were <50% of the 0.1% DMSO treated control value.

[5] = tested on: C2C12 cells; experiment: Cell Proliferation in C2C12 Cells (Cyquant DNA dye); format: cell-based, mouse; details: peptides 10 μM, 72 hours with readdition every 24 hours, relative to 0.1% DMSO control
Experimental: The effect of the peptides on cell proliferation was assessed using a DNA dye binding assay in cultured cells such as mouse myoblast cells. Peptides were initially prepared as 10 mM stock in DMSO, diluted to 1 mM in H2O, and added at a final concentration of 10 μM (0.1% DMSO). Lovastatin was used as a growth arrest control at final concentration of […]. […] C2C12 cells were grown in DMEM supplemented with 20% FBS with 100 IU/ml penicillin and 100 μg/ml streptomycin. […] C2C12 cells were seeded at 800 cells per well on 96-well plates. […] Cell proliferation was determined using Cyquant Direct Nucleic Acid Stain (Thermo Fisher Scientific, Waltham, Mass.) according to the manufacturer's instructions. Fluorescence for each sample well on the plate was measured using a Cytation 3 plate reader at Ex/Em=495/535 nm (BioTek, Winooski, Vt.). Activity was calculated relative to 0.1% DMSO untreated control. The relative standard deviation for the lovastatin control was <27%. The cell proliferation for the lovastatin control was <25% of the value for untreated control.

[6] = tested on: MDA-MB-231 cells; experiment: Cell viability, MTS Assay in MDA-MB-231 Cells; format: cell-based; details: human, 72 hours
Experimental: Test compounds and reference compound staurosporine (Selleckchem) were all dissolved with DMSO at 10 mM stock. […] Activity was calculated relative to DMSO control. […] Cell viability was 3% of the DMSO control value for Staurosporine (10 uM).

[7] = tested on: MCF-7 cells; details: human, 72 hours, 10 μM
Experimental: Peptides and reference compound staurosporine (Selleckchem) were dissolved with DMSO at 10 mM stock. CellTiter 96® AQueous One Solution Reagent (MTS assay reagent) was purchased from Promega (Madison, Wis.). MCF-7 human breast cancer cell line was purchased from American Type Culture Collection (Manassas, Va.). MCF-7 cells were grown in EMEM Medium supplemented with 10% FBS and 0.01 mg/ml human recombinant insulin. 100 μg/ml penicillin and 100 μg/ml streptomycin were added to the culture medium. Cells were incubated with test peptides at 10 μM at 37° C. in a humidified atmosphere of 5% CO2 and 95% air for 72 hours. 5 μl of CellTiter 96® AQueous One Solution Reagent (MTS assay reagent) was added to each well and incubated at 37° C., 5% CO2 for 5 hours. Absorbance at 492 nm was recorded by Envision 2104 Multilabel Reader. Treatment with DMSO alone was used as the cell viability activity control.

[8] = tested on: 3T3-L1 adipocytes; experiment: Free Fatty Acid Levels in 3T3-L1 Adipocytes (Example 4, 25 μM); format: cell-based, mouse; details: peptides 25 μM, 20-22 hours then 3 hours with isoproterenol 1 nM, 3T3-L1 adipocytes
Experimental: Following 12-15 days' differentiation, test peptides were added to a final concentration of 25 μM and incubated for 20-22 hours in Adipocyte Maintenance Medium. After 20-22 hours, isoproterenol (1 nM) was added to all wells except untreated controls and test peptides were replenished. Cells were incubated for a further 3 hours in Assay Buffer (Zen-Bio). Free fatty acid concentrations in the media were determined using a Free Fatty Acid Assay Kit (Zen-Bio) according to the manufacturer's instructions using a plate reader (540 nm). Absorbance values were corrected for untreated background and expressed relative to isoproterenol treated cells. Treatment with isoproterenol (1 nM) alone was used as the free fatty acid level stimulatory control. The relative standard deviation of the isoproterenol control was <10%. […] Free fatty acid levels for insulin (100 nM) treatment were <5% of the isoproterenol control value.

[9] = tested on: Caspase 3/7 in MDA-MB-231 cells; experiment: Caspase 3/7 Activity in MDA-MB-231 Cells (Caspase-Glo 3/7); format: cell-based, human; details: peptides 10 μM, 18 hours, relative to DMSO control
Experimental: The effect of the peptides on cell death/survival can be assessed using a caspase-3 assay. Peptides were dissolved with DMSO at 10 mM stock. […] Staurosporine (Selleckchem) was dissolved with DMSO at 1 mM stock. Caspase-Glo 3/7 Assay Reagent was purchased from Promega (Madison, Wis.). MDA-MB-231 human breast cancer cell line was purchased from American Type Culture Collection (Manassas, Va.). MDA-MB-231 cells were grown in DMEM Medium supplemented with 10% FBS. 100 μg/ml penicillin and 100 μg/ml streptomycin were added to the culture medium. Cultures were maintained at 37° C. in a humidified atmosphere of 5% CO2 and 95% air. MDA-MB-231 cells were incubated with test peptides in duplicate at 10 μM at 37° C. in a humidified atmosphere of 5% CO2 and 95% air for 18 hours. 25 μl of Caspase-Glo 3/7 Assay Reagent was added to each well and incubated at 37° C., 5% CO2 for 1 hour. Luminescence for each sample well on the plate was measured by Envision 2104 Multilabel Reader (PerkinElmer, Santa Clara, Calif.). Activity was calculated relative to DMSO control.

| Compound | Free fatty acid levels, Percent of Isoproterenol Control Activity [1] [%] | Cellular ROS levels induced by TBHP, Percent of Control [2] [%] | Caspase 3/7 activity, Percent of Control Activity [3] [%] | ATP levels, Percent of Control Activity [4] [%] | Cell proliferation, Percent of Control [5] [%] | MTS cell viability, Percent of Control Activity [6] [%] | MTS cell viability, Percent of Control Activity [7] [%] | Free fatty acid levels, Percent of Control Value (percent isoproterenol control) [8] [%] | Caspase 3/7 activity, Percent of Control Activity [9] [%] |
| --- | --- | --- | --- | --- | --- | --- | --- | --- | --- |
| 15 (LPGS[dA]ILTNPVLGWVWV) [compound 15] | 92.8 | 101.5 | 105.6 | 101.6 | 115.1 |  |  |  |  |
| 16 (PGS[dA]ILTNPVLGWVWV) [compound 16] | 97.2 | 106.0 | 99.7 | 102.7 | 100.3 |  |  |  |  |
| 17 (GS[dA]ILTNPVLGWVWV) [compound 17] | 88.5 | 100.8 | 97.1 | 103.8 | 110.0 |  |  |  |  |
| CC[C@H](C)[C@H](NC(=O)CNC(=O)[C@H](CCC(=O)O)NC(=O)[C@H](CCCNC(=N)N)NC(=O)CNC(=O)[C@H](Cc1c[nH]c2ccccc12)NC(=O)[C@@H]1CCCN1C(=O)[C@H](Cc1c[nH]cn1)NC(=O)CNC(=O)CNC(=O)[C@H](CCC(=O)O)NC(=O)[C@H](CO)NC(=O)[C@H](CC(C)C)NC(=O)[C@@H]1CCCN1C(=O)CNC(=O)[C@H](CCCCN)NC(=O)[C@@H](NC(=O)[C@@H](NC(=O)[C@@H](N)CCSC)C(C)C)C(C)C)C(=O)O [compound 25] (H-MVVKGPLSEGGHPWGREGI-OH; N-terminus and C-terminus assumed) |  |  |  |  |  | 76 | 40 | 61 | 46 |
| CC[C@H](C)[C@H](NC(=O)[C@H](C)NC(=O)[C@H](Cc1c[nH]c2ccccc12)NC(=O)[C@@H](N)CCSC)C(=O)N[C@@H](CC(=O)O)C(=O)N[C@@H](CCC(=O)O)C(=O)N[C@@H](CCCCN)C(=O)N[C@@H](C)C(=O)N[C@H](C(=O)N[C@@H](CCC(=O)O)C(=O)N[C@@H](C)C(=O)N[C@@H](CO)C(=O)NCC(=O)N[C@@H](CCC(=O)O)C(=O)O)C(C)C [compound 30] (H-MWAIDEKAVEASGE-OH; N-terminus and C-terminus assumed) |  |  |  |  |  | 76 | 61 | 85 | 50 |

Reference: patent US20220324912A1, “THERAPEUTIC PEPTIDES” (COHBAR, INC., priority 2019, published 2022)
